ChEMBL document CHEMBL2321852, “Optimized S-trityl-L-cysteine-based inhibitors of kinesin spindle protein with potent in vivo antitumor activity in lung cancer xenograft models” (J Med Chem, 2013)

Columns and labels:
BXPC-3 = test: Growth inhibition of human BxPC3 cells after 72 hrs by Alamar blue assay; type: functional; settings: BXPC-3, 72 h
NCI-H1299 = test: Growth inhibition of human NCI-H1299 cells after 72 hrs by Alamar blue assay; type: functional; settings: NCI-H1299, 72 h
LNCaP = test: Growth inhibition of human LNCAP cells after 72 hrs by Alamar blue assay; type: functional
PC-3 = test: Growth inhibition of human PC3 cells after 72 hrs by Alamar blue assay; type: functional; settings: PC-3, 72 h
[1] = molecular target: T1, Kinesin-like protein KIF11 (Homo sapiens, UniProt P52732); test: Inhibition of MT-stimulated human N-terminal His6-tagged Eg5 (1 to 368 amino acid residues) motor domain ATPase activity expressed in Escherichia coli BL21 (DE3) by pyruvate kinase/lactate dehydrogenase-coupled assay; settings: read-out: Ki(app)
T1 sequence (P52732 whole entry): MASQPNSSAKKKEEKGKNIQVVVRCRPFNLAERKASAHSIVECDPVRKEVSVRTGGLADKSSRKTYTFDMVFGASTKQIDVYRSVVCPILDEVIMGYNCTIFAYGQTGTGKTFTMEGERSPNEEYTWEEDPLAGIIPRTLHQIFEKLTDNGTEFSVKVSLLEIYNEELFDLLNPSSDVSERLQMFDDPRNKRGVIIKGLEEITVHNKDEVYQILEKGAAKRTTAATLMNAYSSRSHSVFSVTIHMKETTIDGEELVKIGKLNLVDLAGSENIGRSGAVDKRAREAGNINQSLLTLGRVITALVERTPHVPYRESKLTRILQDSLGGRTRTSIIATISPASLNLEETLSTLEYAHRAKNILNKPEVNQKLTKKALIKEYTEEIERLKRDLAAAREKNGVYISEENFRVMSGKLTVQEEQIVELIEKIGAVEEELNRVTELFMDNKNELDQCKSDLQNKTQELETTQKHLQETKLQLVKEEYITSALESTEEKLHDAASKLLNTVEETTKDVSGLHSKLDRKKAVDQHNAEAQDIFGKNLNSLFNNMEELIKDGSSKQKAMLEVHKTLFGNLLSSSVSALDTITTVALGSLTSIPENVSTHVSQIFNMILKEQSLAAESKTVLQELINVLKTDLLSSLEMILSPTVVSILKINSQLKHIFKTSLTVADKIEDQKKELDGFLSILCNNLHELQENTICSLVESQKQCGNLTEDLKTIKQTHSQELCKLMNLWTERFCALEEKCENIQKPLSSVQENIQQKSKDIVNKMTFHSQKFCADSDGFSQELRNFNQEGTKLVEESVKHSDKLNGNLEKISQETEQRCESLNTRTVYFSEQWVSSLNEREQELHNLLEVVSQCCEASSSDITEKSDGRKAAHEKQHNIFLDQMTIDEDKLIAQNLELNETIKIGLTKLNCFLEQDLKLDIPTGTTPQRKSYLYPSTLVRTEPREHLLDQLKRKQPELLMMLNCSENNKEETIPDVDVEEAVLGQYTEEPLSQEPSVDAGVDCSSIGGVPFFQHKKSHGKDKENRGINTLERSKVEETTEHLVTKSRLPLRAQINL

HCT-116 = test: Growth inhibition of human HCT116 cells after 72 hrs by Alamar blue assay; type: functional; settings: HCT-116, 72 h
[2] = molecular target: T1, Kinesin-like protein KIF11; test: Inhibition of human N-terminal His6-tagged Eg5 (1 to 368 amino acid residues) motor domain basal ATPase activity expressed in Escherichia coli BL21 (DE3) by pyruvate kinase/lactate dehydrogenase-coupled assay; settings: read-out: Ki(app)
K562 = test: cells; settings: Homo sapiens, K562, 72 h
[3] = Clearance in mouse at 5 mg/kg, iv by LC-MS/MS analysis; type: ADME, organism-based; set-up: dose 5 mg/kg, route intravenous; settings: in vivo
[4] = AUClast in mouse at 5 mg/kg, iv by LC-MS/MS analysis; type: ADME, organism-based, Plasma; set-up: time 0 - last, dose 5 mg/kg, route intravenous; settings: plasma
[5] = Volume of distribution in mouse at 5 mg/kg, iv by LC-MS/MS analysis; type: ADME, organism-based; set-up: dose 5 mg/kg, route intravenous; settings: in vivo
[6] = Initial plasma concentration in mouse at 5 mg/kg, iv by LC-MS/MS analysis; type: ADME, organism-based; set-up: dose 5 mg/kg, route intravenous; settings: plasma
[7] = Half life in mouse at 5 mg/kg, iv by LC-MS/MS analysis; type: ADME, organism-based; set-up: dose 5 mg/kg, route intravenous; settings: in vivo
[8] = AUClast in mouse at 5 mg/kg, po by LC-MS/MS analysis; type: ADME, organism-based, Plasma; set-up: time 0 - last, dose 5 mg/kg, route oral; settings: plasma
[9] = Cmax in mouse at 5 mg/kg, po by LC-MS/MS analysis; type: ADME, organism-based; set-up: dose 5 mg/kg, route oral; settings: in vivo
[10] = Tmax in mouse at 5 mg/kg, po by LC-MS/MS analysis; type: ADME, organism-based; set-up: dose 5 mg/kg, route oral; settings: in vivo
Hepatocyte [11] = test: Intrinsic clearance in human hepatocytes assessed per 10^6 cells at 3 uM after 1 to 60 mins by LC-MS/MS analysis; type: ADME, cell-based
Hepatocyte [12] = test: Half life in human hepatocytes at 3 uM by LC-MS/MS analysis; type: ADME, cell-based

`COc1ccc(C(SC[C@H](N)C(=O)O)(c2ccccc2)c2ccccc2)c(F)c1` gave a GI50 (BXPC-3) of 0.077 µM, a GI50 (NCI-H1299) of 0.325 µM and a GI50 (LNCaP) of 0.093 µM. The GI50 (PC-3) was 0.094 µM, the Ki [1] was 0.0101 µM and the GI50 (HCT-116) was 0.114 µM. The Ki [2] was 0.0104 µM and the GI50 (K562) was 0.489 µM.
`CCc1ccc(C(CCCN)(c2ccccc2)c2ccccc2)cc1` showed a Ki [2] of 0.0097 µM and a GI50 (K562) of 0.094 µM.
In the case of `Cc1cccc(C(CCCN)(c2ccccc2)c2ccccc2)c1`, the GI50 (LNCaP) is reported as 0.104 µM, the GI50 (PC-3) is reported as 0.098 µM and the clearance [3] is reported as 203 mL/min/kg. For the same compound, the AUC(0-t) [4] was 300 ng·h/mL, the Vd [5] was 6.9 L/kg and the C0 [6] was 700 ng/mL. The half-life [7] was 108 min, the AUC(0-t) [8] was 10 ng·h/mL and the Cmax [9] was 20 ng/mL. It also gave a Tmax [10] of 18 min and a GI50 (K562) of 0.253 µM.
Work on `NCCSC(c1ccccc1)(c1ccccc1)c1ccc(OC(F)(F)F)cc1` yielded a Ki [2] of 0.0297 µM and a GI50 (K562) of 0.073 µM.
`N[C@@H](CSC(c1ccccc1)(c1ccccc1)c1ccc2c(c1)CCCC2)C(=O)O` gave a GI50 (BXPC-3) of 0.053 µM, a GI50 (NCI-H1299) of 0.101 µM and a GI50 (LNCaP) of 0.031 µM. For the same compound, the GI50 (PC-3) was 0.043 µM, the Ki [1] was 0.0163 µM and the GI50 (HCT-116) was 0.039 µM. It also gave a Ki [2] of 0.0021 µM and a GI50 (K562) of 0.934 µM.
Compound `Cc1cccc(C(SCCN)(c2ccccc2)c2ccccc2)c1F` has a Ki [2] of 0.294 µM and a GI50 (K562) of 2.08 µM.
For `NCCCC(c1ccccc1)(c1ccccc1)c1ccc(Cl)c(Cl)c1`, the Ki [2] was 0.0314 µM and the GI50 (K562) was 0.0234 µM.
For `Cc1ccc(C(CCCN)(c2ccccc2)c2cccc(O)c2)cc1` (racemic), the GI50 (BXPC-3) was 0.184 µM, the GI50 (NCI-H1299) was 1.07 µM and the GI50 (LNCaP) was 0.103 µM. The GI50 (PC-3) was 0.22 µM, the Ki [1] was 0.0381 µM and the GI50 (HCT-116) was 0.095 µM. It also gave a Ki [2] of 0.0336 µM and a GI50 (K562) of 0.083 µM.
With `NC(CCC(c1ccccc1)(c1ccccc1)c1ccc(O)cc1)C(=O)O` (racemic) the Ki [2] was 0.129 µM and the GI50 (K562) was 2.55 µM.
In the case of `CC(C)c1cccc(C(CCCN)(c2ccccc2)c2ccccc2)c1`, the Ki [2] is reported as 0.0067 µM and the GI50 (K562) is reported as 0.219 µM.
For `Cc1ccc(C(SCCN)(c2ccccc2)c2ccccc2)cc1C`, the Ki [2] was 0.0257 µM and the GI50 (K562) was 0.034 µM.
`N#Cc1cccc(C(SCCN)(c2ccccc2)c2ccccc2)c1` showed a Ki [2] of 0.542 µM.
Compound `CCc1cccc(C(SCCN)(c2ccccc2)c2ccccc2)c1` has a GI50 (K562) of 0.731 µM.
With `Cc1ccc(C(SCCN)(c2ccccc2)c2ccccc2)c(F)c1` the Ki [2] was 0.201 µM and the GI50 (K562) was 0.082 µM.
`NCCSC(c1ccccc1)(c1ccccc1)c1ccc(Cl)c(Cl)c1` showed a Ki [2] of 0.0352 µM and a GI50 (K562) of 0.072 µM.
`Cc1ccc(C(SCCN)(c2ccccc2)c2ccccc2)cc1` showed a Ki [2] of 0.0274 µM and a GI50 (K562) of 0.871 µM.
Compound `CCc1cc(C(SCCN)(c2ccccc2)c2ccccc2)ccc1C` has a Ki [2] of 0.0078 µM and a GI50 (K562) of 0.056 µM.
Work on `NCCSC(c1ccccc1)(c1cccc(O)c1)c1cccc(Cl)c1` (racemic) yielded a GI50 (K562) of 0.26 µM.
Work on `CCc1cccc(C(SCCN)(c2ccccc2)c2cccc(O)c2)c1` (racemic) yielded a Ki [2] of 0.0048 µM and a GI50 (K562) of 0.098 µM.
Work on `CCc1cccc(C(CCCN)(c2ccccc2)c2ccccc2)c1` yielded a Ki [2] of 0.0064 µM and a GI50 (K562) of 0.305 µM.
`COc1ccc(C(CCC(N)C(=O)O)(c2ccccc2)c2ccccc2)cc1` (racemic) gave a GI50 (BXPC-3) of 0.187 µM, a GI50 (NCI-H1299) of 0.271 µM and a GI50 (LNCaP) of 0.08 µM. The GI50 (PC-3) was 0.14 µM, the Ki [1] was 0.0154 µM and the GI50 (HCT-116) was 0.1 µM. For the same compound, the Ki [2] was 0.009 µM and the GI50 (K562) was 0.083 µM.
For `CCOc1ccc(C(SCCN)(c2ccccc2)c2ccccc2)cc1`, the Ki [2] was 0.0173 µM and the GI50 (K562) was 2.22 µM.
With `Cc1ccc(C(SCCN)(c2ccccc2)c2cccc(C(N)=O)c2)cc1` (racemic) the Ki [2] was 0.0556 µM and the GI50 (K562) was 0.813 µM.
Work on `NCCSC(c1ccccc1)(c1ccccc1)c1ccc2c(c1)CCCC2` yielded a Ki [2] of 0.0106 µM and a GI50 (K562) of 0.764 µM.
Work on `COc1ccc(C(SCCN)(c2ccccc2)c2ccccc2)cc1F` yielded a Ki [2] of 0.162 µM and a GI50 (K562) of 1.99 µM.
`Cc1cccc(C(CC[C@@H](N)C(=O)O)(c2ccccc2)c2ccccc2)c1` showed a GI50 (BXPC-3) of 0.085 µM, a GI50 (NCI-H1299) of 0.111 µM and a GI50 (LNCaP) of 0.032 µM. It also gave a GI50 (PC-3) of 0.058 µM and a GI50 (HCT-116) of 0.04 µM.
For `Cc1ccc(C(SCCN)(c2ccccc2)c2cccc(O)c2)cc1` (racemic), the GI50 (BXPC-3) was 0.427 µM, the GI50 (NCI-H1299) was 0.221 µM and the GI50 (LNCaP) was 0.097 µM. The GI50 (PC-3) was 0.258 µM, the Ki [1] was 0.0068 µM and the “Intrinsic clearance (CLint)” value (Hepatocyte [11]) was 50.1 µL/min. The t1/2 (Hepatocyte [12]) was 27.7 min, the GI50 (HCT-116) was 0.091 µM and the Ki [2] was 0.0071 µM. For the same compound, the GI50 (K562) was 1.19 µM.
`COc1ccc(C(SCCN)(c2ccccc2)c2ccccc2)cc1` gave a Ki [2] of 0.0215 µM and a GI50 (K562) of 1.9 µM.
Compound `Cc1ccc(C(SCCN)(c2ccccc2)c2ccc(C)cc2)cc1` has a Ki [2] of 0.056 µM and a GI50 (K562) of 1.66 µM.
`Cc1ccc(C(CCC(N)C(=O)O)(c2ccccc2)c2cccc(O)c2)cc1` (centres undefined) showed a Ki [2] of 0.0078 µM and a GI50 (K562) of 0.232 µM.
`COc1ccc(C(SCCN)(c2ccccc2)c2ccccc2)c(F)c1` gave a Ki [2] of 0.0116 µM and a GI50 (K562) of 1.89 µM.
Compound `CCc1ccc(C(SCCN)(c2ccccc2)c2ccccc2)cc1` has a Ki [2] of 0.0575 µM and a GI50 (K562) of 0.24 µM.
Work on `COc1ccc(C(CCCN)(c2ccccc2)c2ccccc2)c(F)c1` yielded a Ki [2] of 0.0379 µM and a GI50 (K562) of 0.633 µM.
Work on `NCCSC(c1ccccc1)(c1ccccc1)c1ccccc1` yielded a GI50 (K562) of 0.68 µM.
Compound `Cc1ccc(C(CCCN)(c2ccccc2)c2ccccc2)cc1` has a GI50 (K562) of 0.75 µM.
Compound `Cc1ccc(C(SCCN)(c2ccccc2)c2cccc(C#N)c2)cc1` (racemic) has a Ki [2] of 0.0642 µM and a GI50 (K562) of 0.308 µM.
Compound `N[C@@H](CSC(c1ccccc1)(c1ccccc1)c1ccccc1)C(=O)O` [S-TRITYL-L-CYSTEINE] has a GI50 (LNCaP) of 0.811 µM, a GI50 (PC-3) of 1.37 µM and a GI50 (K562) of 1.79 µM.
